Assay results taken from patent publication US20220119399A1, “COMPOUNDS AND COMPOSITIONS THAT CAUSE MYCN AND/OR CMYC DEGRADATION AND METHODS OF USE THEREOF” (THE TRUSTEES OF COLUMBIA UNIVERSITY IN THE CITY OF NEW YORK, priority 2018, published 2022).
Entries after “also recorded” stand apart in the source; their conditions may differ.

Columns and labels:
pS6K = experiment: S6K phosphorylation western blot in SK-N-Be2 cells; assay type: cell-based, human; details: 10 μM and 20 μM, 24 hours
From the text: (§1) Membranes were blocked using Odyssey Blocking Buffer (LI-COR) for 1 hr at room temperature. […] Primary antibodies used in these studies include: MycN (CST; 1:500 dilution), Actin (SCBT; 1:2000 dil.), cMYC (CST; 1:500 dil.), pAKT (S473; CST; 1:500 dil.), AKT (CST; 1:2000), pP70 (T389; CST; 1:1000) P70 (CST; 1:1000).
We then tested whether mTORC2 complex was disrupted by isopomiferin treatment. […] to enable translation. We tested whether phosphorylation of S6K was inhibited by isopomiferin by treating SK-N-Be2 cells to 10 μM and 20 μM isopomiferin for 24 hours and blotting for pS6K, using total S6K protein as a loading control. […] We then tested whether this was consistent across cell lines by performing a similar experiment in an NSCLC cell line, A549.

MYCN transcript = experiment: RT-qPCR of MYCN transcript in SK-N-Be2 cells; assay type: cell-based, human; details: 15 μM, sampled 0, 3, 6, 9, 24 hrs
Description: (§2) Reverse transcription quantitative polymerase chain reaction (RT-qPCR) was used to quantify transcript abundance of genes of interest. Total RNA was isolated from cells using the Qiaquick RNeasy isolation kit following manufacturer's instruction (QIAGEN). RNA quality and abundance was measured using a nanodrop spectrophotometer. A total of 2 μg RNA was used as a template for reverse transcription reactions. cDNA synthesis was performed using TaqMan reverse transcriptase following the manufacturer's instructions, using both oligod(T) and random hexamers as primers for RT reactions. RNAse treatment of cDNA removed any residual RNA in cDNA samples. cDNA samples were diluted 10-fold into nuclease-free dH2O, and used as the template for quantitative PCR reactions were performed in a Viia7 […] thermocycler using SYBR green and gene-specific primers (Table 1). qPCR reactions were performed using the Viia7 Real-Time PCR system (Applied Biosystems), and relative transcript abundance evaluated using the deltaCT method, using the GAPDH housekeeping gene as normalization control.

Solubility = assay type: physicochemical
MYC targets gene set = experiment: GSEA of Cancer Hallmarks gene sets from PLATE-Seq profiles; assay type: cell-based, human; details: SK-N-Be2 cells, 3.3 μM and 10 μM, 6 h and 24 h
From the text: We next performed gene set analysis using PLATE-Seq expression profiling by binning transcripts according to the Cancer Hallmarks gene sets found at the molecular signatures database. Curated by the Broad Institute, these fifty hallmark pathway sets represent well defined cancer processes or states associated with cancer malignancies. […] Given that isopomiferin disrupted the MycN^AMP regulatory module, it was expected that this target would be suppressed by isopomiferin. We sought to understand how the compound is affecting cells by assessing whether any other pathways are affected by the compound. […] E2F […] regulators act in a feedback loop with MycN and also regulate cell cycle progression (Strieder and Lutz 2003; Li et al. 2014), so this is an interesting finding that will be further investigated. MycN enables cancer cells to evade the immune system by suppressing antigens that can act as immune attractants necessary for detection and destruction of cancer cells (Brandetti et al. 2017; Topper et al. 2017). It is possible that enrichment of the “Inflammatory Response” gene set is a result of desuppression of these targets as a result of MycN inhibition.
We sought to investigate biological pathways affected by isopomiferin by performing pathway enrichment analysis on a set of 50 hallmarks of cancer. […]

MYCN MR signature = experiment: RNASeq with VIPER analysis of the MYCN MR signature; assay type: cell-based, human; details: SK-N-Be2 cells
Description: To uncover changes in gene expression that underpin responses to pomiferin and isopomiferin, RNASeq analysis of SK-N-Be2 cells was performed following treatment with the two active prenylated isoflavonoids as well as a null analog that served as a negative control. SK-N-Be2 cells were treated with either 3 μM or 10 μM of isopomiferin or pomiferin and sampled after 3 h and 6 h. […] By comparing the active to the null analogs, downstream analyses can focus on changes in gene expression associated with the MYCN signature.
Intriguingly, only six MRs were suppressed by pomiferin and isopomiferin, while being unaffected by the null analog dimethyl pomiferin (FIG. 20B).

[1] = system: PARP and caspase3 cleavage; experiment: Western blot of apoptosis hallmarks (cleaved PARP, cleaved caspase 3); assay type: cell-based, human; details: SK-N-Be2 cells, 48 hrs
From the text: as §1

SK-N-Be2 cells = assay type: in vitro ADME, human; details: human, 20 μM
Description: In brief, SK-N-Be2 cells were seeded at 400 k cells/well in 6 w plates and incubated overnight. The following day, compounds were added to wells at indicated concentrations, with DMSO-only control added to non-treated wells. Following treatment for the indicated time periods, cells were trypsinized, rinsed twice with cold PBS to remove media, pelleted by centrifugation, and frozen at −20° C. To extract compounds, frozen pellets were resuspended in 150 μL of acetonitrile, sonicated for 2′, and centrifuged at 1400×g for 75′ at 4° C. Supernatant was collected and analyzed by LC-MS using a system comprised of a Thermo Scientific Dionex Ultimate 3000 and a Bruker amaZon SL equipped with an electrospray ionization source controlled by a Bruker Hystar 3.2. Compounds were separated by injecting 20 μL of supernatant onto an Agilent Eclipse Plus C18 column (2.1×50 mm, […]) maintained at 20° C., with the flow rate set at 400 μL/min. Initial flow conditions were 60% solvent A (MilliQ H2O, 0.1% acetic acid), and 40% solvent B (HPLC-grade MeOH, 0.1% acetic acid). Solvent B was raised to 60% over 0.25 min and to 70% by 6.75 min. Solvent B was raised to 95% by 7 min and lowered back to 40% by 8 minutes; total run time was 9 min (Bos et al. 2019).

[2] = system: PLK1, LIN28B, and BMI1 transcripts; experiment: qPCR of downstream targets of MycN (PLK1, LIN28B, BMI1) in SK-N-Be2 cells; assay type: cell-based, human; details: 10 μM, up to 24 h
Description: as §2

| Compound | phosphorylation of S6K (P70^S6K) (pS6K) | phosphorylation of S6K (P70^S6K) (pS6K; listed as Isopomiferin) | MYCN transcript abundance (RT-qPCR) (MYCN transcript) | solubility (Solubility) | Cancer Hallmarks gene set enrichment (MYC Targets, E2F Targets, G2M Checkpoint) (MYC targets gene set) | effect on the MYCN MR signature (VIPER of RNASeq) (MYCN MR signature) | induction of apoptosis (PARP and caspase3 cleavage) [1] | amount of compound detected in cell sample (SK-N-Be2 cells) | transcript accumulation of PLK1, LIN28B, and BMI1 [2] |
| --- | --- | --- | --- | --- | --- | --- | --- | --- | --- |
| CC1(C)C=Cc2c(c3c(c4c(=O)c(-c5ccc(O)c(O)c5)coc24)OC(C)(C)CC3)O1 [isopomiferin] | completely inhibited phosphorylation of S6K protein | inhibited phosphorylation of P70^S6K | transcript abundance decreased in a time-dependent manner | not soluble in aqueous buffers | suppressed the MYC targets gene set; also recorded: suppressed by isopomiferin treatment in a time- and dose-dependent manner |  |  |  |  |
| CC(C)=CCc1c2c(c3occ(-c4ccc(O)c(O)c4)c(=O)c3c1O)C=CC(C)(C)O2 [pomiferin] |  |  |  |  |  | had the strongest effect on the MYCN MR signature | more potent inducer of apoptosis than CX-4945 | ~300 ng | inhibited the transcript accumulation of three downstream targets of MycN |
